Consider 30 compounds from ChEMBL document CHEMBL3399985, “Rational design, synthesis and structure-activity relationships of 4-alkoxy- and 4-acyloxy-phenylethylenethiosemicarbazone analogues as novel tyrosinase inhibitors” (Bioorg Med Chem, 2015).

Activity calls are given as the source filed them. No cut-off for these calls is given here.

The first test concerns the target T1, Tyrosinase (Agaricus bisporus) (UniProt O42713).
T1 sequence (whole entry): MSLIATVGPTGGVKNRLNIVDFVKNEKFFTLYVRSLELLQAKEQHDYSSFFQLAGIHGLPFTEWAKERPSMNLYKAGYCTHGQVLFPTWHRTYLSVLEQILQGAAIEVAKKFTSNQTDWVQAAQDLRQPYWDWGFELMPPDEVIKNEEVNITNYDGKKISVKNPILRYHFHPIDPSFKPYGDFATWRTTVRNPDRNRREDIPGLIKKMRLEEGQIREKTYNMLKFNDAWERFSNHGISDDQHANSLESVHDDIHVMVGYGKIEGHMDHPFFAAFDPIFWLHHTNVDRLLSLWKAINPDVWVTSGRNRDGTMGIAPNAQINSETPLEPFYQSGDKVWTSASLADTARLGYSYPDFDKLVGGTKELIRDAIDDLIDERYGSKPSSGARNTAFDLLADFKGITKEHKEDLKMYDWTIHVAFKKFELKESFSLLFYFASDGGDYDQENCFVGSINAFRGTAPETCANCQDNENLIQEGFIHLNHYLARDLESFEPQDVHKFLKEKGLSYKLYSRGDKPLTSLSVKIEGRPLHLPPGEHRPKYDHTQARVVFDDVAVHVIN
Kind of test: Reversible inhibition of mushroom tyrosinase using L-DOPA as substrate preincubated at 0.1 to 0.3 uM for 10 mins by spectrophotometry.
Consider `C/C(CCc1ccc(OCc2ccccc2)cc1)=N\NC(N)=S`, for which the inhibition result was “Active”.

For another test, the target named is T1, Tyrosinase (Agaricus bisporus). Put plainly: Reversible inhibition of mushroom tyrosinase using L-DOPA as substrate preincubated at 0.2 to 0.6 uM for 10 mins by spectrophotometry.
Consider `C/C(Cc1ccc(OCc2ccccc2)cc1)=N\NC(N)=S`, for which the inhibition result is “Active”.

The next test has the same target. Kind of test: Competitive inhibition of mushroom tyrosinase using L-DOPA as substrate preincubated at 0.1 to 0.3 uM for 10 mins by Lineweaver-Burk double reciprocal plot method.
Consider `C/C(CCc1ccc(OCc2ccccc2)cc1)=N\NC(N)=S`, for which the inhibition result is “Active”.

The target is the same in the next test. Put plainly: Competitive inhibition of mushroom tyrosinase using L-DOPA as substrate preincubated at 0.2 to 0.6 uM for 10 mins by Lineweaver-Burk double reciprocal plot method.
`C/C(Cc1ccc(OCc2ccccc2)cc1)=N\NC(N)=S`: the inhibition result was “Active”.

The next test deals with T2, Tyrosinase (Agaricus bisporus, UniProt O42713).
T2 sequence (O42713 whole entry): T1 sequence (whole entry)
Description: Inhibition of mushroom tyrosinase using L-DOPA as substrate preincubated for 10 mins by spectrophotometry
Compound `COc1ccc(/C(C)=N/NC(=S)NN)cc1` gave an IC50 of 110000 nM.

`C/C(CCc1ccc(OCCC(C)C)cc1)=N\NC(N)=S`: the IC50 worked out at 475 nM. The same measure, in the same setting: in the case of `C/C(CCc1ccc(OCc2ccccc2)cc1)=N\NC(N)=S` it was 217 nM; in that of `CCCCCCCCOc1ccc(CC/C(C)=N/NC(N)=S)cc1`, 865 nM; in that of `CCCCOc1ccc(CC/C(C)=N/NC(N)=S)cc1`, 272 nM. For the compound `C/C(Cc1ccc(OCc2ccccc2)cc1)=N\NC(N)=S`, the IC50 worked out at 340 nM. The same measure, in the same setting: in the case of `CCCOc1ccc(CC/C(C)=N/NC(N)=S)cc1` it was 264 nM; in that of `C/C(CCc1ccc(OCCCc2ccccc2)cc1)=N\NC(N)=S`, 835 nM; in that of `COc1ccc(CC/C(C)=N/NC(N)=S)cc1`, 188 nM. On the same count and under the same terms, to `C/C(CCc1ccc(OCCCC(=O)O)cc1)=N\NC(N)=S` belongs 678 nM; to `CC(=O)Oc1ccc(CC/C(C)=N/NC(N)=S)cc1`, 72 nM; to `C/C(Cc1ccc(O)cc1)=N\NC(N)=S`, 2710 nM. `C/C(CCc1ccc(OC(=O)c2ccccc2)cc1)=N\NC(N)=S`: half-maximal inhibition (IC50) required 156 nM. The same measure, in the same setting: in the case of `CCOC(=O)COc1ccc(CC/C(C)=N/NC(N)=S)cc1` it was 515 nM; in that of `NNC(=S)NN`, 178000 nM; in that of `CCOC(=O)CCCOc1ccc(CC/C(C)=N/NC(N)=S)cc1`, 328 nM. Same read-out and setting: to `CCC(CC)Oc1ccc(CC/C(C)=N/NC(N)=S)cc1` belongs 445 nM; to `C/C(CCc1ccc(OC(=O)C(C)C)cc1)=N\NC(N)=S`, 288 nM. Same read-out and setting: in the case of `CCCCCCOc1ccc(CC/C(C)=N/NC(N)=S)cc1` it was 754 nM. Compound `COc1ccc(C/C(C)=N/NC(=S)NN)cc1` showed an IC50 of 159000 nM. The same measure, in the same setting: in the case of `C/C(CCc1ccc(OCC(=O)O)cc1)=N\NC(N)=S` it was 593 nM. On to `CCCCCOc1ccc(CC/C(C)=N/NC(N)=S)cc1`, for which the IC50 turned out to be 412 nM. `CCOC(=O)CCCOc1ccc(C/C(C)=N/NC(N)=S)cc1` gave an IC50 of 478 nM. On to `C/C(CCc1ccc(OCc2ccc(Br)cc2)cc1)=N\NC(N)=S`, for which the IC50 was 438 nM. Same read-out and setting: in the case of `C/C(CCc1ccc(O)cc1)=N\NC(=S)NN` it was 126000 nM; in that of `COc1ccc(CC/C(C)=N/NC(=S)NN)cc1`, 208000 nM; in that of `CCCCOc1ccc(CC/C(C)=N/NC(=S)NN)cc1`, 232000 nM. Still for that read-out and setting: to `CCCCCOc1ccc(C/C(C)=N/NC(N)=S)cc1` belongs 613 nM; to `CCCCOc1ccc(C/C(C)=N/NC(=S)NN)cc1`, 224000 nM; to `CCOc1ccc(CC/C(C)=N/NC(N)=S)cc1`, 209 nM.
